Measurements: the NIST ThermoML archive (doi:10.1016/j.jct.2013.07.008)

Key:
[1] = refractive index (Na D-line) (dimensionless); wn = mass fraction of the nth substance listed; conditions: 101 kPa, Liquid, Standard Abbe refractometry
[2] = wn = mass fraction of the nth substance listed; conditions: for surface tension liquid-gas: Maximal bubble pressure; for mass density: 101 kPa, Liquid, Buoyancy - hydrostatic balance

CC(O)C(=O)[O-].CCn1cc[n+](C)c1 [1-ethyl-3-methylimidazolium lactate] + O
Conditions	mass density, [2] [kg/m3]	refractive index, [1]	surface tension liquid-gas, [2] [mN/m]
288.15 K, w2 = 0.0082	1197.3	1.5019	50.1
288.15 K, w2 = 0.0104	1198.4	1.5017	50.3
288.15 K, w2 = 0.0121	1199.4	1.5016	50.4
288.15 K, w2 = 0.0158	1201.3	1.5013	50.7
288.15 K, w2 = 0.0205	1203.8	1.5009	51
293.15 K, w2 = 0.0082	1194.1	1.5006	49.8
293.15 K, w2 = 0.0104	1195.2	1.5004	50
293.15 K, w2 = 0.0121	1196.1	1.5002	50.1
293.15 K, w2 = 0.0158	1198.1	1.4999	50.4
293.15 K, w2 = 0.0205	1200.5	1.4994	50.7
303.15 K, w2 = 0.0082	1187.6	1.498	49.1
303.15 K, w2 = 0.0104	1188.8	1.4978	49.3
303.15 K, w2 = 0.0121	1189.7	1.4977	49.4
303.15 K, w2 = 0.0158	1191.5	1.4974	49.7
303.15 K, w2 = 0.0205	1194	1.497	50.1
308.15 K, w2 = 0.0082	1184.3	1.4969	48.7
308.15 K, w2 = 0.0104	1185.5	1.4967	48.9
308.15 K, w2 = 0.0121	1186.4	1.4965	49
308.15 K, w2 = 0.0158	1188.3	1.4962	49.3
308.15 K, w2 = 0.0205	1190.7	1.4957	49.7
313.15 K, w2 = 0.0082	1180.9	1.4955	48.4
313.15 K, w2 = 0.0104	1182	1.4953	48.6
313.15 K, w2 = 0.0121	1182.9	1.4952	48.7
313.15 K, w2 = 0.0158	1184.9	1.4949	49
313.15 K, w2 = 0.0205	1187.5	1.4946	49.4
318.15 K, w2 = 0.0082	1177.6	1.4943	48.1
318.15 K, w2 = 0.0104	1178.8	1.4941	48.3
318.15 K, w2 = 0.0121	1179.7	1.494	48.4
318.15 K, w2 = 0.0158	1181.5	1.4937	48.7
318.15 K, w2 = 0.0205	1184	1.4933	49.1
323.15 K, w2 = 0.0082	1174.5	1.4931	47.7
323.15 K, w2 = 0.0104	1175.6	1.493	47.9
323.15 K, w2 = 0.0121	1176.4	1.4929	48
323.15 K, w2 = 0.0158	1178.2	1.4927	48.3
323.15 K, w2 = 0.0205	1180.6	1.4924	48.7
328.15 K, w2 = 0.0082	1171.3	1.4919	47.3
328.15 K, w2 = 0.0104	1172.5	1.4917	47.5
328.15 K, w2 = 0.0121	1173.4	1.4915	47.6
328.15 K, w2 = 0.0158	1175.3	1.4912	47.9
328.15 K, w2 = 0.0205	1177.7	1.4908	48.3
333.15 K, w2 = 0.0082	1168	1.4906	47
333.15 K, w2 = 0.0104	1169.1	1.4904	47.2
333.15 K, w2 = 0.0121	1170	1.4903	47.3
333.15 K, w2 = 0.0158	1172	1.49	47.6
333.15 K, w2 = 0.0205	1174.5	1.4896	48

CC(O)C(=O)[O-].CCCCCn1cc[n+](C)c1 [1-pentyl-3-methylimidazolium lactate] + O
Conditions	mass density, [2] [kg/m3]	refractive index, [1]	surface tension liquid-gas, [2] [mN/m]
288.15 K, w2 = 0.0081	–	1.4933	–
288.15 K, w2 = 0.0086	1116.6	–	43.7
288.15 K, w2 = 0.0102	–	1.4931	–
288.15 K, w2 = 0.0106	1117.4	–	43.8
288.15 K, w2 = 0.0129	1118.6	1.4929	44
288.15 K, w2 = 0.0153	–	1.4927	–
288.15 K, w2 = 0.0163	1120.3	–	44.3
288.15 K, w2 = 0.0199	–	1.4923	–
288.15 K, w2 = 0.021	1122.4	–	44.6
293.15 K, w2 = 0.0081	–	1.492	–
293.15 K, w2 = 0.0086	1113.1	–	43.3
293.15 K, w2 = 0.0102	–	1.4918	–
293.15 K, w2 = 0.0106	1113.9	–	43.4
293.15 K, w2 = 0.0129	1115.2	1.4916	43.6
293.15 K, w2 = 0.0153	–	1.4913	–
293.15 K, w2 = 0.0163	1116.8	–	43.9
293.15 K, w2 = 0.0199	–	1.4909	–
293.15 K, w2 = 0.021	1119	–	44.2
303.15 K, w2 = 0.0081	–	1.4894	–
303.15 K, w2 = 0.0086	1106.8	–	42.6
303.15 K, w2 = 0.0102	–	1.4892	–
303.15 K, w2 = 0.0106	1107.6	–	42.7
303.15 K, w2 = 0.0129	1108.8	1.489	42.9
303.15 K, w2 = 0.0153	–	1.4888	–
303.15 K, w2 = 0.0163	1110.5	–	43.2
303.15 K, w2 = 0.0199	–	1.4884	–
303.15 K, w2 = 0.021	1112.7	–	43.5
308.15 K, w2 = 0.0081	–	1.4883	–
308.15 K, w2 = 0.0086	1103.6	–	42.2
308.15 K, w2 = 0.0102	–	1.4881	–
308.15 K, w2 = 0.0106	1104.3	–	42.3
308.15 K, w2 = 0.0129	1105.6	1.4879	42.5
308.15 K, w2 = 0.0153	–	1.4876	–
308.15 K, w2 = 0.0163	1107.3	–	42.8
308.15 K, w2 = 0.0199	–	1.4872	–
308.15 K, w2 = 0.021	1109.5	–	43.2
313.15 K, w2 = 0.0081	–	1.4869	–
313.15 K, w2 = 0.0086	1099.9	–	41.9
313.15 K, w2 = 0.0102	–	1.4867	–
313.15 K, w2 = 0.0106	1100.7	–	42
313.15 K, w2 = 0.0129	1102.1	1.4865	42.2
313.15 K, w2 = 0.0153	–	1.4863	–
313.15 K, w2 = 0.0163	1104	–	42.5
313.15 K, w2 = 0.0199	–	1.486	–
313.15 K, w2 = 0.021	1106.4	–	42.9
318.15 K, w2 = 0.0081	–	1.4857	–
318.15 K, w2 = 0.0086	1097.1	–	41.6
318.15 K, w2 = 0.0102	–	1.4855	–
318.15 K, w2 = 0.0106	1097.8	–	41.8
318.15 K, w2 = 0.0129	1099.1	1.4853	41.9
318.15 K, w2 = 0.0153	–	1.4851	–
318.15 K, w2 = 0.0163	1100.8	–	42.2
318.15 K, w2 = 0.0199	–	1.4847	–
318.15 K, w2 = 0.021	1103	–	42.6
323.15 K, w2 = 0.0081	–	1.4845	–
323.15 K, w2 = 0.0086	1093.9	–	41.2
323.15 K, w2 = 0.0102	–	1.4844	–
323.15 K, w2 = 0.0106	1094.6	–	41.4
323.15 K, w2 = 0.0129	1095.8	1.4842	41.5
323.15 K, w2 = 0.0153	–	1.4841	–
323.15 K, w2 = 0.0163	1097.5	–	41.8
323.15 K, w2 = 0.0199	–	1.4838	–
323.15 K, w2 = 0.021	1099.6	–	42.2
328.15 K, w2 = 0.0081	–	1.4833	–
328.15 K, w2 = 0.0086	1090.5	–	40.8
328.15 K, w2 = 0.0102	–	1.4831	–
328.15 K, w2 = 0.0106	1091.2	–	41
328.15 K, w2 = 0.0129	1092.5	1.4829	41.1
328.15 K, w2 = 0.0153	–	1.4826	–
328.15 K, w2 = 0.0163	1094.1	–	41.4
328.15 K, w2 = 0.0199	–	1.4822	–
328.15 K, w2 = 0.021	1096.4	–	41.8
333.15 K, w2 = 0.0081	–	1.482	–
333.15 K, w2 = 0.0086	1087.4	–	40.5
333.15 K, w2 = 0.0102	–	1.4818	–
333.15 K, w2 = 0.0106	1088.1	–	40.7
333.15 K, w2 = 0.0129	1089.3	1.4816	40.8
333.15 K, w2 = 0.0153	–	1.4814	–
333.15 K, w2 = 0.0163	1091	–	41.1
333.15 K, w2 = 0.0199	–	1.481	–
333.15 K, w2 = 0.021	1093.2	–	41.5
